These results are taken from patent publication US20170369492A1 (Takeda Pharmaceutical Company Limited, priority 2014, published 2017).

The test concerns the target T1, human GPR43 (Homo sapiens, UniProt O15552).
T1 construct: expressed in transfected cells
T1 sequence (O15552 1-330): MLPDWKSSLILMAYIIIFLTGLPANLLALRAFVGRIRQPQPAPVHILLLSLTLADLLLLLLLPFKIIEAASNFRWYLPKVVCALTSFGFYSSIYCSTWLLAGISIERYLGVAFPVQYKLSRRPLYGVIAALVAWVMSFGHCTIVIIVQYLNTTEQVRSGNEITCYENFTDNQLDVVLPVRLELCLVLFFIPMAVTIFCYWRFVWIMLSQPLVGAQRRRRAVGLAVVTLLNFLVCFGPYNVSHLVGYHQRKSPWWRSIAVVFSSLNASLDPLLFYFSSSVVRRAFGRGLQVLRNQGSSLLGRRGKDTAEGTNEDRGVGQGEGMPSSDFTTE
The test can be described thus: Ca-Flux Functional Assay: Determination of Agonist/Positive Allosteric Modulator (PAM) Activity. In kind it is cell-based. The note with it: CHO-K1 Gα16 cells stably expressing human GPR43; compound added in the presence of EC20 sodium acetate; intracellular Ca2+ by FLIPR; agonist/PAM activity not distinguished. The gist of the method: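 FLIPR calcium read in CHO-K1 Gα16 cells stably expressing human GPR43, loaded with Calcium 5 dye in HBSS/HEPES/probenecid/BSA for 1 h at 37 °C. Compounds were tested in 10-point half-log series from 10 μM, co-added with sodium acetate at its EC20. EC50 taken from duplicate-well curves, capturing agonist or PAM activity without distinction.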
Consider `COc1ncnc2c(S(=O)(=O)c3ccccc3)c(N)n(C3CCCCC3)c12` [Example 26, 7-(benzenesulfonyl)-5-cyclohexyl-4-methoxy-5H-pyrrolo[3,2-d]pyrimidin-6-amine], for which the concentration giving a half-maximal response (EC50) worked out at 79 nM.
Under `CC(C)Oc1ccc(S(=O)(=O)c2c(N)n(C3CCCCC3)c3nccnc23)cc1` [Example 7, 5-cyclohexyl-7-{[4-(propan-2-yloxy)benzene]sulfonyl}-5H-pyrrolo[2,3-b]pyrazin-6-amine] stands 172 nM; under `Nc1c(S(=O)(=O)c2ccccc2)c2ncccc2n1C1CCC(F)(F)CC1` [Example 21, 3-(benzenesulfonyl)-1-(4,4-difluorocyclohexyl)-1H-pyrrolo[3,2-b]pyridin-2-amine], 282 nM.
In the case of `COc1ccc(S(=O)(=O)c2c(N)n(C3CCCCC3)c3nccnc23)cn1` [Example 115, 5-cyclohexyl-7-(6-methoxypyridine-3-sulfonyl)-5H-pyrrolo[2,3-b]pyrazin-6-amine], the concentration for a half-maximal effect (EC50) came to 4560 nM.
In the case of `CCC(C)NS(=O)(=O)c1c(N)n(C2CCCCC2)c2nccnc12` (stereo not shown) [Example 95, 6-amino-N-(butan-2-yl)-5-cyclohexyl-5H-pyrrrolo[2,3-b]pyrazine-7-sulfonamide], the EC50 came to 334 nM.
Regarding `Nc1c(S(=O)(=O)Nc2ccccc2)c2nccnc2n1C1CCCCC1` [Example 41, 6-amino-5-cyclohexyl-N-phenyl-5H-pyrrolo[2,3-b]pyrazine-7-sulfonamide], the EC50 was 585 nM.
The figure for `Nc1c(S(=O)(=O)NCC2COC2)c2nccnc2n1C1CCCCC1` [Example 80, 6-amino-5-cyclohexyl-N-(oxetan-3-ylmethyl)-5H-pyrrolo[2,3-b]pyrazine-7-sulfonamide] is 6070 nM.
The figure for `CC1CCN(S(=O)(=O)c2c(N)n(C3CCCCC3)c3nccnc23)C1` (stereo not shown) [Example 67, 5-cyclohexyl-7-((3-methylpyrrolidin-1-yl)sulfonyl)-5H-pyrrolo[2,3-b]pyrazin-6-amine] is 830 nM; for `COc1ccc(S(=O)(=O)c2c(N)n(C3CCCCC3)c3nccnc23)cc1Cl` [Example 114, 7-[(3-chloro-4-methoxybenzene)-sulfonyl]-5-cyclohexyl-5H-pyrrolo[2,3-b]pyrazin-6-amine] it is 206 nM; for `COc1ccc(S(=O)(=O)c2c(N)n(C3CCC(F)(F)CC3)c3ncccc23)cc1` [Example 14, 1-(4,4-difluorocyclohexyl)-3-[(4-methoxybenzene)sulfonyl]-1H-pyrrolo[2,3-b]pyridin-2-amine] it is 138 nM.
In the case of `CC(=O)N(C)C1CCN(S(=O)(=O)c2c(N)n(C3CCCCC3)c3nccnc23)CC1` [Example 79, N-(1-{6-amino-5-cyclohexyl-5H-pyrrolo[2,3-b]pyrazine-7-sulfonyl}piperidin-4-yl)-N-methylacetamide], the EC50 is 5970 nM.
The figure for `Nc1c(S(=O)(=O)N2CC(Oc3ccccc3)C2)c2nccnc2n1C1CCCCC1` [Example 99, 5-cyclohexyl-7-(3-phenoxyazetidine-1-sulfonyl)-5H-pyrrolo[2,3-b]pyrazin-6-amine] is 1550 nM.
Regarding `Nc1c(S(=O)(=O)NCCc2nccs2)c2nccnc2n1C1CCCCC1` [Example 103, 6-amino-5-cyclohexyl-N-[2-(1,3-thiazol-2-yl)ethyl]-5H-pyrrolo[2,3-b]pyrazine-7-sulfonamide], the concentration for a half-maximal effect (EC50) came to 471 nM.
The figure for `Nc1c(S(=O)(=O)N2CCN(C(=O)c3ccc(F)cc3)CC2)c2nccnc2n1C1CCCCC1` [Example 98, 5-cyclohexyl-7-{4-[(4-fluorophenyl)carbonyl]piperazine-1-sulfonyl}-5H-pyrrolo[2,3-b]pyrazin-6-amine] is 2810 nM; for `Nc1c(S(=O)(=O)c2ccccc2)c2nccnc2n1C1CCC(F)(F)CC1` [Example 49, 5-(4,4-difluoro-cyclohexyl)-7-(phenylsulfonyl)-5H-pyrrolo[2,3-b]pyrazin-6-amine] it is 211 nM.
With `Nc1c(S(=O)(=O)N2CCCC2)c2nccnc2n1C1CCCCC1` [Example 58, 5-cyclohexyl-7-(pyrrolidin-1-ylsulfonyl)-5H-pyrrolo[2,3-b]pyrazin-6-amine], the concentration giving a half-maximal response (EC50) came to 2240 nM.
The figure for `CC1(C)CC1Cn1c(N)c(S(=O)(=O)c2ccccc2)c2nccnc21` (stereo not shown) [Example 56, 5-((2,2-dimethylcyclopropyl)methyl)-7-(phenylsulfonyl)-5H-pyrrolo[2,3-b]pyrazin-6-amine] is 1300 nM; for `CC1CCN(S(=O)(=O)c2c(N)n(C3CCCCC3)c3nccnc23)CC1` [Example 62, 5-cyclohexyl-7-((4-methylpiperidin-1-yl)sulfonyl)-5H-pyrrolo[2,3-b]pyrazin-6-amine] it is 303 nM.
The figure for `Nc1c(S(=O)(=O)c2ccccc2)c2nccnc2n1CCC1CCC1` [Example 50, 5-(2-cyclobutylethyl)-7-(phenylsulfonyl)-5H-pyrrolo[2,3-b]pyrazin-6-amine] is 760 nM.
